According to patent US11382328B2, “Rapid drug discovery methods for pathogen inactivation” (priority 2019, dated 2022):

System: E. coli strain W3110
Assay: Synergy assays: Biolog chemical sensitivity panels with Group IB metal, coefficient of drug interaction (CDI) from relative growth
Type: cell-based
Details: for CDI (coefficient of drug interaction), copper mixed with biocide: Copper (mM) section; for CDI (coefficient of drug interaction), gold + biocide: Gold (μM)
[1] = 1st of 3 copper concentrations (value not shown), 3rd of four biocide concentrations
[2] = 1st of 3 copper concentrations (value not shown), 4th of four biocide concentrations
[3] = 2nd of 3 copper concentrations (value not shown), 3rd of four biocide concentrations
[4] = 2nd of 3 copper concentrations (value not shown), 4th of four biocide concentrations
[5] = 3rd of 3 copper concentrations (value not shown), 3rd of four biocide concentrations
[6] = 3rd of 3 copper concentrations (value not shown), 4th of four biocide concentrations
[7] = Gold section of Table 5, first of three gold concentrations (μM, value not given), biocide concentration 3 of 4
[8] = Gold section of Table 5, first of three gold concentrations (μM, value not given), biocide concentration 4 of 4
[9] = Gold section of Table 5, second of three gold concentrations (μM, value not given), biocide concentration 3 of 4
[10] = Gold section of Table 5, second of three gold concentrations (μM, value not given), biocide concentration 4 of 4
[11] = Gold section of Table 5, third of three gold concentrations (μM, value not given), biocide concentration 3 of 4
[12] = Gold section of Table 5, third of three gold concentrations (μM, value not given), biocide concentration 4 of 4
[13] = Silver 0.5 μM, 3rd of four biocide concentrations, E. coli
[14] = Silver 0.5 μM, 4th of four biocide concentrations, E. coli
[15] = Silver 1.0 μM, 3rd of four biocide concentrations, E. coli
[16] = Silver 1.0 μM, 4th of four biocide concentrations, E. coli
[17] = Silver 5.0 μM, 3rd of four biocide concentrations, E. coli
[18] = Silver 5.0 μM, 4th of four biocide concentrations, E. coli

CCCCCCCC[N+](C)(CCCCCCCC)CCCCCCCC.[Br-] [Methyltrioctyl NH4+ Br−]
CDI (coefficient of drug interaction), copper mixed with biocide (1st of 3 copper concentrations (value not shown), 1st of four biocide concentrations): 1.05
CDI (coefficient of drug interaction), copper mixed with biocide (1st of 3 copper concentrations (value not shown), 2nd of four biocide concentrations): 1.22
CDI (coefficient of drug interaction), copper mixed with biocide [1]: 1.39
CDI (coefficient of drug interaction), copper mixed with biocide [2]: Tox
CDI (coefficient of drug interaction), copper mixed with biocide (2nd of 3 copper concentrations (value not shown), 1st of four biocide concentrations): 1.08
CDI (coefficient of drug interaction), copper mixed with biocide (2nd of 3 copper concentrations (value not shown), 2nd of four biocide concentrations): 1.14
CDI (coefficient of drug interaction), copper mixed with biocide [3]: 1.05
CDI (coefficient of drug interaction), copper mixed with biocide [4]: Tox
CDI (coefficient of drug interaction), copper mixed with biocide (3rd of 3 copper concentrations (value not shown), 1st of four biocide concentrations): 0.87
CDI (coefficient of drug interaction), copper mixed with biocide (3rd of 3 copper concentrations (value not shown), 2nd of four biocide concentrations): 0.80
CDI (coefficient of drug interaction), copper mixed with biocide [5]: 0.44
CDI (coefficient of drug interaction), copper mixed with biocide [6]: Tox
CDI (coefficient of drug interaction) (Gold section of Table 5, first of three gold concentrations (μM, value not given), biocide concentration 1 of 4): 1.06
CDI (coefficient of drug interaction) (Gold section of Table 5, first of three gold concentrations (μM, value not given), biocide concentration 2 of 4): 1.05
CDI (coefficient of drug interaction) [7]: 1.00
CDI (coefficient of drug interaction) [8]: Tox
CDI (coefficient of drug interaction) (Gold section of Table 5, second of three gold concentrations (μM, value not given), biocide concentration 1 of 4): 1.14
CDI (coefficient of drug interaction) (Gold section of Table 5, second of three gold concentrations (μM, value not given), biocide concentration 2 of 4): 0.98
CDI (coefficient of drug interaction) [9]: 0.37
CDI (coefficient of drug interaction) [10]: Tox
CDI (coefficient of drug interaction) (Gold section of Table 5, third of three gold concentrations (μM, value not given), biocide concentration 1 of 4): 0.96
CDI (coefficient of drug interaction) (Gold section of Table 5, third of three gold concentrations (μM, value not given), biocide concentration 2 of 4): 1.01
CDI (coefficient of drug interaction) [11]: 0.91
CDI (coefficient of drug interaction) [12]: Tox
CDI (coefficient of drug interaction), silver + biocide (Silver 0.5 μM, 1st of four biocide concentrations, E. coli): 1.01
CDI (coefficient of drug interaction), silver + biocide (Silver 0.5 μM, 2nd of four biocide concentrations, E. coli): 0.90
CDI (coefficient of drug interaction), silver + biocide [13]: Tox
CDI (coefficient of drug interaction), silver + biocide [14]: Tox
CDI (coefficient of drug interaction), silver + biocide (Silver 1.0 μM, 1st of four biocide concentrations, E. coli): 1.04
CDI (coefficient of drug interaction), silver + biocide (Silver 1.0 μM, 2nd of four biocide concentrations, E. coli): 1.09
CDI (coefficient of drug interaction), silver + biocide [15]: Tox
CDI (coefficient of drug interaction), silver + biocide [16]: Tox
CDI (coefficient of drug interaction), silver + biocide (Silver 5.0 μM, 1st of four biocide concentrations, E. coli): 1.66
CDI (coefficient of drug interaction), silver + biocide (Silver 5.0 μM, 2nd of four biocide concentrations, E. coli): 1.73
CDI (coefficient of drug interaction), silver + biocide [17]: Tox
CDI (coefficient of drug interaction), silver + biocide [18]: Tox

CCn1cc(C(=O)O)c(=O)c2ccc(C)nc21 [Nalidixic Acid]
CDI (coefficient of drug interaction), copper mixed with biocide [1]: Tox
CDI (coefficient of drug interaction), copper mixed with biocide [2]: Tox
CDI (coefficient of drug interaction), copper mixed with biocide [3]: Tox
CDI (coefficient of drug interaction), copper mixed with biocide [4]: Tox
CDI (coefficient of drug interaction), copper mixed with biocide [5]: Tox
CDI (coefficient of drug interaction), copper mixed with biocide [6]: Tox
CDI (coefficient of drug interaction) [7]: Tox
CDI (coefficient of drug interaction) [8]: Tox
CDI (coefficient of drug interaction) [9]: Tox
CDI (coefficient of drug interaction) [10]: Tox
CDI (coefficient of drug interaction) [11]: Tox
CDI (coefficient of drug interaction) [12]: Tox
CDI (coefficient of drug interaction), silver + biocide [13]: Tox
CDI (coefficient of drug interaction), silver + biocide [14]: Tox
CDI (coefficient of drug interaction), silver + biocide [15]: Tox
CDI (coefficient of drug interaction), silver + biocide [16]: Tox
CDI (coefficient of drug interaction), silver + biocide [17]: Tox
CDI (coefficient of drug interaction), silver + biocide [18]: Tox

CC1=C(C(=O)Nc2ccccc2)S(=O)(=O)CCO1 [Oxycarboxin]
CDI (coefficient of drug interaction) (Copper (mM), 1st of 3 copper concentrations (head line not shown), biocide concentration 3 of 4, E. coli): Tox
CDI (coefficient of drug interaction) (Copper (mM), 1st of 3 copper concentrations (head line not shown), biocide concentration 4 of 4, E. coli): Tox
CDI (coefficient of drug interaction) (Copper (mM), 2nd of 3 copper concentrations (head line not shown), biocide concentration 3 of 4, E. coli): Tox
CDI (coefficient of drug interaction) (Copper (mM), 2nd of 3 copper concentrations (head line not shown), biocide concentration 4 of 4, E. coli): Tox
CDI (coefficient of drug interaction) (Copper (mM), 3rd of 3 copper concentrations (head line not shown), biocide concentration 3 of 4, E. coli): Tox
CDI (coefficient of drug interaction) (Copper (mM), 3rd of 3 copper concentrations (head line not shown), biocide concentration 4 of 4, E. coli): Tox
CDI (coefficient of drug interaction), gold + biocide (first of 3 gold concentrations, biocide concentration 2 of 4): Tox
CDI (coefficient of drug interaction), gold + biocide (first of 3 gold concentrations, biocide concentration 3 of 4): Tox
CDI (coefficient of drug interaction), gold + biocide (first of 3 gold concentrations, biocide concentration 4 of 4): Tox
CDI (coefficient of drug interaction), gold + biocide (second of 3 gold concentrations, biocide concentration 2 of 4): Tox
CDI (coefficient of drug interaction), gold + biocide (second of 3 gold concentrations, biocide concentration 3 of 4): Tox
CDI (coefficient of drug interaction), gold + biocide (second of 3 gold concentrations, biocide concentration 4 of 4): Tox
CDI (coefficient of drug interaction), gold + biocide (third of 3 gold concentrations, biocide concentration 2 of 4): Tox
CDI (coefficient of drug interaction), gold + biocide (third of 3 gold concentrations, biocide concentration 3 of 4): Tox
CDI (coefficient of drug interaction), gold + biocide (third of 3 gold concentrations, biocide concentration 4 of 4): Tox
CDI (Silver 0.5 μM, biocide concentration 2 of 4): Tox
CDI (Silver 0.5 μM, biocide concentration 3 of 4): Tox
CDI (Silver 0.5 μM, biocide concentration 4 of 4): Tox
CDI (Silver 1.0 μM, biocide concentration 2 of 4): Tox
CDI (Silver 1.0 μM, biocide concentration 3 of 4): Tox
CDI (Silver 1.0 μM, biocide concentration 4 of 4): Tox
CDI (Silver 5.0 μM, biocide concentration 2 of 4): Tox
CDI (Silver 5.0 μM, biocide concentration 3 of 4): Tox
CDI (Silver 5.0 μM, biocide concentration 4 of 4): Tox
